The values that follow come from PubChem BioAssay AID2423 (Broad Institute, 2010).

Inconclusive results are not listed. The source made the active and inactive calls. No rule for the calls is given here.

For the test, the system named is C. albicans CaCi-8 + fluconazole, Alamar Blue growth, 48 h. The test is described as follows: resistant C. albicans growth inhibition with fluconazole, dose response, CaCi-8 strain, Alamar Blue fluorescence (AID 2423). On the technique in general: Alamar Blue is a resazurin reagent that responds to reducing activity.
For `Nc1ncnc(Sc2ncccn2)c1[N+](=O)[O-]`, the EC50 was 0.484 µM. `O=c1c2ccc(Cl)cc2nc(-c2ccc([N+](=O)[O-])cc2)n1O`: the EC50 was 1.09 µM. On to `CCOc1ccc2c(c1)C(C)=CC(C)(C)N2S(=O)(=O)c1ccc(C)cc1`, for which the EC50 was > 16 µM (inactive). Next, `CCCCCCCCCCCCCCCC[n+]1cccc(C(=O)N(CC)CC)c1`: 6.23 µM; `O=[N+]([O-])c1ccc(C2CCCC/C2=N/OCc2ccc(F)cc2)c([N+](=O)[O-])c1` (centres undefined): > 16 µM (inactive); `O=S1(=O)N=C(Nc2ccc(N3CCOCC3)cc2)c2ccccc21`: > 16 µM (inactive). Take `O=C(Nc1ccc(OCc2ccccc2Cl)cc1)c1cccnc1`: the EC50 was 3.71 µM. Consider `CC12CCC(C(=O)N(NC(=O)c3ccccc3O)C1=O)C2(C)C` (centres undefined), for which the EC50 was 13.9 µM. Regarding `O=C(N/N=C/c1ccccn1)c1cc(-c2ccc(Cl)cc2)nc2ccccc12`, the half-maximal effective concentration (EC50) is 4.33 µM.

Take `CC(=O)NC(c1ccccc1)c1cc(Cl)c2cccnc2c1O` (centres undefined): the EC50 is 0.764 µM. `CC(c1ccc(Cl)cc1)n1c(-c2ccc3ccccc3n2)n[nH]c1=S` (centres undefined): the EC50 was 5.26 µM. In the case of `CCN(CC)c1ccc(/C=N/Nc2nc(C)cc(=O)[nH]2)c(O)c1`, the EC50 was 0.5 µM. For `C/C(=N\NC(=O)c1cc(-c2cccs2)nc2ccccc12)c1ccccn1`, the concentration for a half-maximal effect (EC50) was 1.82 µM. Turning to `O=C(NC1CCCCC1)C(c1ccc(Cl)cc1)N(C(=O)c1cnccn1)c1ccc2c(c1)OCO2` (centres undefined), the concentration giving a half-maximal response (EC50) was 9.72 µM. Regarding `C/C(=N\N1C(=O)CSC1=S)c1ccc(Br)cc1`, the EC50 was 11.9 µM. Consider `Cc1ccc(C)c(NC(=S)NNC(=O)c2csc3c2CCC(C)C3)c1` (centres undefined), for which the EC50 is 1.15 µM. `O=C(Nc1cccc(NC(=O)c2ccccc2Cl)c1)c1ccc([N+](=O)[O-])o1`: the EC50 was 0.716 µM. On to `CC1CCN(C(=O)Cn2c3ccccc3c3nc4n(c(=O)c32)CCS4)CC1`, for which the EC50 is > 16 µM (inactive). As to `O=C(NNC(=S)NC(=O)c1ccccc1[N+](=O)[O-])c1ccc(Cl)cc1Cl`, the EC50 is 1.87 µM. With `COc1ccccc1NC1=C(N2CCCCC2)C(=O)c2ccccc2C1=O`, the concentration giving a half-maximal response (EC50) is 0.245 µM. To `Cc1ccc(NC(=O)CNC(=O)c2ccc(Oc3ccccc3)cc2)nc1` belongs 0.44 µM; to `Oc1c(C(Nc2cccc(C(F)(F)F)c2)c2ccncc2)ccc2cccnc12` (centres undefined), 2.44 µM; to `COc1cc(NS(=O)(=O)c2ccc3ccccc3c2)c2ncccc2c1`, 2.56 µM. As to `NCC(c1ccc(Cl)cc1Cl)c1c[nH]c2ccccc12` (centres undefined), the EC50 is > 16 µM (inactive). To `O=C(Nc1nc2ccc(S(=O)(=O)N3CCCCC3)cc2s1)c1ccncc1` belongs 1.04 µM; to `CCCCCc1ccc(-c2ccc(/C=C/C(=O)O)cc2)nc1`, 0.957 µM; to `CC(=O)N1CCN(c2ccc(NC(=O)c3ccc(C(C)(C)C)cc3)cc2)CC1`, 11.9 µM.

In the case of `CC[n+]1c(/C=C/N(C)c2ccccc2)n(-c2ccccc2)c2ccc(-c3nc4ccccc4s3)cc21`, the EC50 is 1.2 µM. As to `C[C@@H]1CC[C@@]2(NC1)O[C@H]1C[C@H]3[C@@H]4CC=C5C[C@@H](O)CC[C@]5(C)[C@H]4CC[C@]3(C)[C@H]1[C@@H]2C`, the EC50 is 0.132 µM. Next, `COc1ccc(-c2nnc(NC(=O)c3ccc(S(=O)(=O)N4CCCc5ccccc54)cc3)o2)cc1`: 0.193 µM; `COc1ccc(C(=O)N/N=C(\Cc2ncc[nH]2)c2ccccc2)cc1`: > 16 µM (inactive). Consider `O=C1/C(=C\c2cccnc2)SC(=S)N1C1CCS(=O)(=O)C1` (centres undefined), for which the EC50 is > 16 µM (inactive).

On to `O=C(N/N=C/c1c(O)n(CCC2=CCCCC2)c(=S)[nH]c1=O)c1ccccc1`, for which the EC50 is 10.7 µM. Turning to `Cc1n[nH]c(=S)n(NC(=O)CC(=O)Nn2c(=S)[nH]nc(C)c2=O)c1=O`, the EC50 is less than 0.12 µM. Next, `O=C(c1ccc(C(=O)N2CCCc3ccccc32)s1)N1CCCc2ccccc21`: 2.99 µM. Next, `CNC(=S)N/N=C/c1ccc(-c2ccc(Cl)c([N+](=O)[O-])c2)o1`: 1.94 µM; `CC(=O)Nc1ccc(N2CCCCC2)c(C(=O)Nc2cccc(C)c2)c1`: > 16 µM (inactive); `Cc1nc2ccccc2cc1OCc1ccc(F)cc1`: 0.909 µM.

For `CC(=O)N(Cc1ccc(F)cc1)C1=C(NCCc2ccccc2)C(=O)c2ccccc2C1=O`, the EC50 is 0.33 µM. Take `COC(=O)c1c(C(=O)OC)c(-c2ccc(Cl)c(Cl)c2)n2c1CCC2`: the EC50 is 8.98 µM. `Cc1ccc(OCC(=O)N/N=C\c2c(C)[nH]n(-c3ccccc3)c2=O)c([N+](=O)[O-])c1`: the EC50 is 6.6 µM. Regarding `Oc1ccc(N=Nc2nccs2)c(O)c1`, the EC50 is 7.25 µM.

Regarding `CCOCCCNC(=O)c1ccc(N(C)S(=O)(=O)c2ccc(OC)cc2)cc1`, the EC50 was > 16 µM (inactive). For `CCCCCCCSc1nc(N)cc(=O)[nH]1`, the EC50 was 5.94 µM. Next, `CCOc1ccc(-n2c(C)cc(C(=O)CCl)c2C)cc1`: 5.79 µM; `O=C(NCCCc1ccccc1)Nc1cccc(Cl)c1`: 11.2 µM.

`O=C(CCS(=O)(=O)Cc1ccccc1)Nc1nnc(C(F)(F)F)s1`: the EC50 was 0.746 µM. To `CN(C)C(=O)c1cn(-c2ccccc2)nc1-c1cccs1` belongs > 16 µM (inactive). `COc1cccc(-n2nnnc2S(C)(=O)=O)c1`: the EC50 is > 15 µM (inactive). As for `CC[n+]1c(/C=C/N(C)c2ccccc2)oc2ccccc21`, the EC50 is 7.62 µM. Regarding `Cn1c(SC2=CS(=O)(=O)c3ccccc32)nc2ccccc21`, the EC50 was 2.33 µM. Regarding `COc1ccc(NC(=O)NC(C)c2ccccc2)cc1` (centres undefined), the EC50 was > 16 µM (inactive).

Take `C/C(=N/NC(=O)c1ccccc1O)c1ccc(N2C(=O)C3CCCCC3C2=O)cc1` (centres undefined): the EC50 is > 16 µM (inactive). For `O=C(NNC(=S)Nc1ccc(Cl)c(Cl)c1)c1ccccn1`, the EC50 is 1.13 µM.

With `Oc1ccc(Cl)cc1C1=NNC(c2cc(Br)cc3c2OCOC3)C1` (centres undefined), the EC50 was > 16 µM (inactive). `Cc1scc(C(=O)N/N=C/c2ccc([N+](=O)[O-])o2)c1C`: the EC50 was 0.884 µM. For `COCc1cc(CN2CCN(C)CC2)c(O)c2ncccc12`, the EC50 is 6.66 µM. As to `Cc1cc(SCC(=O)N/N=C/c2ccc(O)cc2O)c(C)cc1Br`, the EC50 was 5.01 µM.

As for `COc1ccc(/C=N/OCC(=O)Nc2nc3ccccc3s2)cc1`, the EC50 was 3.05 µM. As for `CCCOc1cccc(-c2nnc(NC(=O)c3ccco3)s2)c1`, the EC50 is 0.622 µM. For the compound `O=[N+]([O-])c1ccc2c(c1)[nH]c(=S)n2-c1ccccc1`, the EC50 was 0.648 µM.

Consider `O=c1oc2ccccc2c(O)c1Cc1cc(Cl)c2cccnc2c1O`, for which the EC50 is 2.75 µM. As for `Oc1c(Br)cc(Br)cc1CNc1cccc2cccnc12`, the EC50 was > 15 µM (inactive).

Regarding `O=[N+]([O-])c1ccc(C2[C@H]3C(c4ccccc4)=NC4(CCCC4)N23)cc1` (some centres undefined), the EC50 is > 15 µM (inactive). As to `Cc1cc(N/N=C/c2c(O)ccc3ccccc23)nc(-c2ccccc2O)n1`, the EC50 was 0.133 µM.

Consider `O=C1N/C(=N\N=C\c2cccnc2)SC1Cc1ccc(SC(F)F)cc1` (centres undefined), for which the EC50 is 3.24 µM. To `CCCOc1ccc(C(=O)NNC(=S)NC(=O)CC)cc1` belongs 0.937 µM; to `Cc1cc(SCC(=O)N/N=C/c2ccc(O)c(O)c2O)c(C)cc1Br`, 0.884 µM; to `c1ccc(-c2ccccc2OCCCN2CCCCCC2)cc1`, 6.61 µM.

By EC50 is commonly meant the concentration giving half of the maximal effect.
